# Test results as given in US20100190824A1, “Novel Substituted Piperidones as HSP Inducers” (priority 2007, published 2010).
# Legend:
# TNF-α mRNA = test: Inhibition of LPS-induced TNF-α expression in PMA differentiated THP-1 cells; assay type: cell-based, Human; settings: LPS (1 ug/ml) and compound for 4 hours, LPS alone as 100%
# Method: The purpose of the present study was to determine the inhibition of lipopolysaccharide(LPS)-induced TNF-α expression in phorbol merstyl ester (PMA) differentiated THP-1 cells.
# Human monocytic leukaemia cell line (THP-1), differentiated into macrophage-like cells by PMA treatment was employed. Differentiated cells were treated with either LPS (1 ug/ml) alone or with LPS (1 ug/ml) and compound for 4 hours. Total RNA was isolated and expression of TNF-αmRNA along-with expression of 18S rRNA was monitored by real-time PCR. TNF-α mRNA expression was normalized relative to the expression of 18S rRNA Considering TNF-α expression for cells treated with LPS alone as 100%; the results for test compounds were expressed as % inhibition of TNF-α expression and are as shown in Table 4
# HSP70b mRNA = test: Cellular expression of HSP-70 mRNA in primary mixed neurons (real-time PCR); assay type: cell-based; settings: fold induction of HSP70b mRNA relative to vehicle treated control; primary mixed neurons from neonatal rat cerebellum; 4 hours; normalized to 18S rRNA
# Method: Experiments set forth in this section were conducted to determine whether the compounds of the present invention are able to elevate the expression of HSP-70 gene in cells.
# Hela cell-line or primary mixed neurons derived from neonatal rat cerebellum were employed. Induction was carried out for the indicated dose(s) for 4 hours duration and total RNA was isolated. Expression of HSP70b mRNA along-with expression of 18S rRNA was monitored by real-time PCR. HSP70b mRNA expression was normalized relative to the expression of 18S rRNA.
# The results for test compounds were expressed as fold induction of HSP-70 mRNA relative to vehicle treated control and are as shown in Table 2 & 3.
SMILES,TNF-alpha Inhibition (TNF-α mRNA),HSP Induction in mixed neuron (HSP70b mRNA)
"CC1(C)CN(Cc2ccccc2)CC(=Cc2ccccn2)C1=O [Compound 1, 1-Benzyl-3,3-dimethyl-5-[1-pyridin-2-yl-methylidene]-piperidin-4-one]",(++++) (>80%),–
"CC1(C)CN(C(=O)OCc2ccccc2)CC(=Cc2ccccn2)C1=O [Compound 2, 3,3-Dimethyl-4-oxo-5-[1-pyridin-2-yl-methylidene]-piperidine-1-carboxylic acid benzyl ester]",(+++) (61-80%),–
"CC1(C)CN(Cc2ccccc2)CC(=Cc2ccc(C(=O)N3CCOCC3)cc2)C1=O [Compound 7, 1-Benzyl-3,3-dimethyl-5-[1-[4-(morpholine-4-carbonyl)-phenyl]-methylidene]-piperidin-4-one]",(+++) (61-80%),–
"CSc1ccc(C=C2CN(Cc3ccccc3)CC(C)(C)C2=O)cc1 [Compound 8, 1-Benzyl-3,3-dimethyl-5-[1-(4-methylsulfanyl-phenyl)-methylidene]-piperidin-4-one]",(++++) (>80%),–
"CSc1ccc(C2/C(=C\c3cccc(N4CCOCC4)n3)C(=O)C(C)(C)CN2Cc2ccccc2)cc1 (centres unmarked) [Compound 42, 1-Benzyl-5,5-dimethyl-2-(4-methylsulfanyl-phenyl)-3-[1-(6-morpholin-4-yl-pyridin-2-yl)-meth-(E)-ylidene]-piperidin-4-one]",(++) (41-60%),(+++) (9-16 fold)
"CC1(C)CN(Cc2ccccc2)C(c2ccc(C(F)(F)F)cc2)C(=Cc2cccc(N3CCOCC3)n2)C1=O (centres unmarked) [Compound 43, 1-Benzyl-5,5-dimethyl-3-[1-(6-morpholin-4-yl-pyridin-2-yl)-methylidene]-2-(4-trifluoromethyl-phenyl)-piperidin-4-one]",(++) (41-60%),(+++) (9-16 fold)
"CC1(C)CN(Cc2ccccc2)C(c2ccc(Cl)c(Cl)c2)C(=Cc2ccccn2)C1=O (centres unmarked) [Compound 45, 1-Benzyl-2-(3,4-dichloro-phenyl)-5,5-dimethyl-3-[1-pyridin-2-yl-methylidene]-piperidin-4-one]",–,(++) (5-8 fold)
"CSc1ccc(C2C(=Cc3ccccn3)C(=O)C(C)(C)CN2Cc2ccccc2)cc1 (centres unmarked) [Compound 46, 1-Benzyl-5,5-dimethyl-2-(4-methylsulfanyl-phenyl)-3-[1-pyridin-2-yl-methylidene]-piperidin-4-one]",(++) (41-60%),(+++) (9-16 fold)
"COc1ccc(CN2CC(C)(C)C(=O)C(=Cc3ccccn3)C2c2ccccc2)cc1 (centres unmarked) [Compound 47, 1-(4-Methoxy-benzyl)-5,5-dimethyl-2-phenyl-3-[1-pyridin-2-yl-methylidene]-piperidin-4-one]",(+++) (61-80%),(++++) (>16 fold)
"COC(=O)N1CC(=Cc2ccccn2)C(=O)C(C)(C)C1Cc1ccc(OC)cc1 (centres unmarked) [Compound 52, 2-(4-Methoxy-benzyl)-3,3-dimethyl-4-oxo-5-[1-pyridin-2-yl-methylidene]-piperidine-1-carboxylic acid methyl ester]",(++++) (>80%),(++) (5-8 fold)
"CC1(C)CN(Cc2cccs2)C(c2ccccc2F)C(=Cc2cccc(N3CCOCC3)n2)C1=O (centres unmarked) [Compound 57, 2-(2-Fluoro-phenyl)-5,5-dimethyl-3-[1-(6-morpholin-4-yl-pyridin-2-yl)-methylidene]-1-thiophen-2-ylmethyl-piperidin-4-one]",–,(+) (2-4 fold)
"CC1(C)CN(Cc2cccs2)C(c2ccccc2F)C(=Cc2ccccn2)C1=O (centres unmarked) [Compound 58, (2-Fluoro-phenyl)-5,5-dimethyl-3-[1-pyridin-2-yl-methylidene]-1-thiophen-2-ylmethyl-piperidin-4-one]",–,(+) (2-4 fold)
"COc1ccc(CC2N(C(=S)Nc3ccccc3)CC(=Cc3ccccn3)C(=O)C2(C)C)cc1 (centres unmarked) [Compound 60, 2-(4-Methoxy-benzyl)-3,3-dimethyl-4-oxo-5-[1-pyridin-2-yl-methylidene]-piperidine-1-carbothioic acid phenylamide]",(+++) (61-80%),(++++) (>16 fold)
"CSc1ccc(C2C(=Cc3ccccn3)C(=O)C(C)(C)CN2Cc2cccs2)cc1 (centres unmarked) [Compound 61, 5,5-Dimethyl-2-(4-methylsulfanyl-phenyl)-3-[1-pyridin-2-yl-methylidene]-1-thiophen-2-ylmethyl-piperidin-4-one]",(+++) (61-80%),(++++) (>16 fold)
"COc1ccc(CN2CC(C)(C)C(=O)C(=Cc3cccc(N4CCOCC4)n3)C2c2ccccc2)cc1 (centres unmarked) [Compound 62, 1-(4-Methoxy-benzyl)-5,5-dimethyl-3-[1-(6-morpholin-4-yl-pyridin-2-yl)-methylidene]-2-phenyl-piperidin-4-one]",–,(+) (2-4 fold)
"COc1ccc(CN2CC(C)(C)C(=O)C(=Cc3cccc(N4CCOCC4)n3)C2c2ccc(C(F)(F)F)cc2)cc1 (centres unmarked) [Compound 63, 1-(4-Methoxy-benzyl)-5,5-dimethyl-3-[1-(6-morpholin-4-yl-pyridin-2-yl)-methylidene]-2-(4-trifluoromethyl-phenyl)-piperidin-4-one]",(++) (41-60%),(++) (5-8 fold)
"Cc1cc(N2CC(=Cc3ccccn3)C(=O)C(C)(C)C2)no1 [Compound 64, 3,3-Dimethyl-1-(5-methyl-isoxazol-3-yl)-5-[1-pyridin-2-yl-methylidene]-piperidin-4-one]",–,(++++) (>16 fold)
"Cc1cc(N2CC(C)(C)C(=O)C(=Cc3cccc(N4CCOCC4)n3)C2c2ccccc2)no1 (centres unmarked) [Compound 65, 5,5-Dimethyl-1-(5-methyl-isoxazol-3-yl)-3-[1-(6-morpholin-4-yl-pyridin-2-yl)-methylidene]-2-phenyl-piperidin-4-one]",(+++) (61-80%),(+++) (9-16 fold)
"COc1ccc(CC2N(C(=O)NCc3ccccc3)CC(=Cc3ccccn3)C(=O)C2(C)C)cc1 (centres unmarked) [Compound 66, 2-(4-Methoxy-benzyl)-3,3-dimethyl-4-oxo-5-[1-pyridin-2-yl-methylidene]-piperidine-1-carboxylic acid benzylamide]",–,(++) (5-8 fold)
"CC1(C)CN(CCc2cccs2)CC(=Cc2cccc(N3CCOCC3)n2)C1=O [Compound 69, 3,3-Dimethyl-5-[1-(6-morpholin-4-yl-pyridin-2-yl)-methylidene]-1-(2-thiophen-2-yl-ethyl)-piperidin-4-one]",(+++) (61-80%),(++++) (>16 fold)
"CC1(C)CN(Cc2ccc(F)cc2)CC(=Cc2cccc(N3CCOCC3)n2)C1=O [Compound 73, 1-(4-Fluoro-benzyl)-3,3-dimethyl-5-[1-(6-morpholin-4-yl-pyridin-2-yl)-methylidene]-piperidin-4-one]",–,(+) (2-4 fold)
"CC1(C)CN(Cc2ccc(F)cc2)C(c2ccccc2)C(=Cc2ccccn2)C1=O (centres unmarked) [Compound 76, 1-(4-Fluoro-benzyl)-5,5-dimethyl-2-phenyl-3-[1-pyridin-2-yl-methylidene]-piperidin-4-one]",–,(+) (2-4 fold)
"CC1(C)CN(Cc2ccc(F)cc2)C(c2ccccc2)C(=Cc2cccc(N3CCOCC3)n2)C1=O (centres unmarked) [Compound 81, 1-(4-Fluoro-benzyl)-5,5-dimethyl-3-[1-(6-morpholin-4-yl-pyridin-2-yl)-methylidene]-2-phenyl-piperidin-4-one]",–,(+) (2-4 fold)
"COc1ccc(CN2CC(C)(C)C(=O)C(=Cc3cccc(N4CCOCC4)n3)C2c2ccccc2F)cc1 (centres unmarked) [Compound 86, 2-(2-Fluoro-phenyl)-1-(4-methoxy-benzyl)-5,5-dimethyl-3-[1-(6-morpholin-4-yl-pyridin-2-yl)-methylidene]-piperidin-4-one]",–,(+) (2-4 fold)
"COc1ccc(C2C(=Cc3cccc(N4CCOCC4)n3)C(=O)C(C)(C)CN2Cc2ccccc2)c(F)c1 (centres unmarked) [Compound 92, 1-Benzyl-2-(2-fluoro-4-methoxy-phenyl)-5,5-dimethyl-3-[1-(6-morpholin-4-yl-pyridin-2-yl)-methylidene]-piperidin-4-one]",–,(++) (5-8 fold)
"CC1(C)CN(CCc2ccccc2)C(c2ccccc2)C(=Cc2ccccn2)C1=O (centres unmarked) [Compound 94, 5,5-Dimethyl-1-phenethyl-2-phenyl-3-[1-pyridin-2-yl-methylidene]-piperidin-4-one]",–,(+) (2-4 fold)
"CC1(C)CN(CCc2ccccc2)C(c2ccccc2)C(=Cc2cccc(N3CCOCC3)n2)C1=O (centres unmarked) [Compound 95, 5,5-Dimethyl-3-[1-(6-morpholin-4-yl-pyridin-2-yl)-methylidene]-1-phenethyl-2-phenyl-piperidin-4-one]",–,(++) (5-8 fold)
"Cc1ccc(CN2CC(C)(C)C(=O)C(=Cc3cccc(N4CCOCC4)n3)C2c2ccccc2)cc1 (centres unmarked) [Compound 232, 5,5-Dimethyl-1-(4-methyl-benzyl)-3-[1-(6-morpholin-4-yl-pyridin-2-yl)-methylidene]-2-phenyl-piperidin-4-one]",–,(++) (5-8 fold)
